Results on five molecules are retold here after patent publication US3953456A, “Carbostyril derivatives and process for preparing the same” (Otsuka Pharmaceutical Co., Ltd., priority 1972, dated 1976).

Where two headings read alike, the source gives them in different places.

Data set [1] concerns isoprenaline. Kind of data set: Antagonistic activity against isoprenaline (β-blockers screening method) in anesthesized dogs: % inhibition of pulse increase and blood pressure reduction. In kind it is in vivo, male mongrel adult dogs. The following applies: isoprenaline 0.3 γ/Kg after 5 minutes; for Antagonistic Activity Against Isoprenaline (% Inhibition), Blood Pressure: pressure reduction by isoprenaline alone = 100%; for Antagonistic Activity Against Isoprenaline (% Inhibition), Pulse: pulse increase by isoprenaline alone = 100%. The procedure: The antagonistic activity of the compounds of this invention against isoprenaline was determined using the β-blockers screening method (C. E. Powell, I. H. Slater : J. Pharmac., 122, 480 (1958 )).
Male mongrel adult dogs, weighing 13 to 20 Kg were anesthesized with 30 mg/Kg of body weight of pentabarbital sodium administered intravenously. Each of the test compounds was then administered to the anesthesized dog at a dosage level of 30γ or 100γ/Kg of body weight from the femoral vein and after 5 minutes isoprenaline was administered to the dog through the femoral vein at a dosage level of 0.3 γ/Kg of body weight. the blood pressure and the pulse (H.R.) were then recorded on a polygraph through a pressure transducer and a tachometer operated by the R wave of the electrocardiograph, respectively, to determine % inhibitory activity of the test compound against the pulse increase and the pressure reduction induced by isoprenaline.
*The pulse increase and the pressure reduction induced by the
administration of isoprenaline alone are referred to as 100%.

Data set [2] is described as follows: Acute toxicity in rat (LD50, 50% lethal dose). The conditions noted are these: in vivo, rat (Wister strain). The procedure:
Also, the acute toxicity in rat (Wister strain) was determined in a standard manner with respect to representative compounds of this invention.

With `CC(C)NCC(O)COc1cccc2[nH]c(=O)ccc12` (centres unmarked) [5-(2-hydroxy-3-isopropylamino)propoxycarbostyril], in data set [1] (30 γ/Kg from the femoral vein), the “Antagonistic Activity Against Isoprenaline (% Inhibition), Blood Pressure” value amounted to 89.2% and the “Antagonistic Activity Against Isoprenaline (% Inhibition), Pulse” value is 87.6%. The LD50 (in general, the dose expected to kill half of the subjects tested) in data set [2] (iv, i.v., read-out: LD50 i.v.) is 162 mg/kg. Moreover, the 50% lethal dose (LD50) in data set [2] (po, p.o., read-out: LD50 p.o.) was 2000 mg/kg.
In the case of `CC(C)(C)NCC(O)COc1cccc2ccc(=O)[nH]c12` (centres unmarked) [8-(2-hydroxy-3-tert-butylamino)propoxycarbostyril], the “Antagonistic Activity Against Isoprenaline (% Inhibition), Blood Pressure” value in data set [1] (100 γ/Kg from the femoral vein) amounted to 78.3%. Further, in data set [1] (100 γ/Kg from the femoral vein), the “Antagonistic Activity Against Isoprenaline (% Inhibition), Pulse” value amounted to 72.6%. Moreover, the 50% lethal dose (LD50) came to 148 mg/kg in data set [2] (iv, i.v., read-out: LD50 i.v.) and 1800 mg/kg in data set [2] (po, p.o., read-out: LD50 p.o.).
For `CC(C)NCC(O)COc1cccc2ccc(=O)[nH]c12` (centres unmarked) [8-(2-hydroxy-3-isopropylamino)propoxycarbostyril], in data set [1] (100 γ/Kg from the femoral vein), the “Antagonistic Activity Against Isoprenaline (% Inhibition), Blood Pressure” value is on record as 66.2% and the “Antagonistic Activity Against Isoprenaline (% Inhibition), Pulse” value is recorded as 57.4%. Besides, the LD50 in data set [2] (iv, i.v., read-out: LD50 i.v.) was 178 mg/kg. Further, in data set [2] (po, p.o., read-out: LD50 p.o.), the LD50 came to 2000 mg/kg.
As for `CC(C)(C)NCC(O)COc1cccc2[nH]c(=O)ccc12` (centres unmarked) [5-(2-hydroxy-3-tert-butylamino)propoxycarbostyril], in data set [1] (30 γ/Kg from the femoral vein), the “Antagonistic Activity Against Isoprenaline (% Inhibition), Blood Pressure” value was determined as 97.9% and the “Antagonistic Activity Against Isoprenaline (% Inhibition), Pulse” value was found to be 96.1%. Besides, the median lethal dose (LD50) in data set [2] (iv, i.v., read-out: LD50 i.v.) is 136 mg/kg. Moreover, the median lethal dose (LD50) in data set [2] (po, p.o., read-out: LD50 p.o.) is 1800 mg/kg.
`CCC(C)NCC(O)COc1cccc2ccc(=O)[nH]c12` (centres unmarked) [8-(2-hydroxy-3-sec-butylamino)propoxycarbostyril]: in data set [1] (100 γ/Kg from the femoral vein), the “Antagonistic Activity Against Isoprenaline (% Inhibition), Blood Pressure” value stood at 51.8%. The “Antagonistic Activity Against Isoprenaline (% Inhibition), Pulse” value in data set [1] (100 γ/Kg from the femoral vein) is 42.1%. In addition, the median lethal dose (LD50) was determined as 143 mg/kg in data set [2] (iv, i.v., read-out: LD50 i.v.) and 1900 mg/kg in data set [2] (po, p.o., read-out: LD50 p.o.).
